From patent US20190343425A1, “TREATMENT OF A DISEASE OF THE GASTROINTESTINAL TRACT WITH A TNF INHIBITOR” (Progenity, Inc., priority 2016, published 2019)

Experiment: Tacrolimus tissue pharmacokinetics, oral versus intra-cecal ingestible device delivery
Format: in vivo, Yorkshire-Cross farm swine
Details: swine; intra-cecally (ingestible device) vs orally administered; FIG. 76
Method: No further randomization procedure was employed.
Animals in Group 1 received an ingestible device containing 0.8 mL of vehicle solution (80% alcohol, 20% HCO-60). Animals in Group 2 received orally […] liquid formulation of tacrolimus at 4 mg/0.8 mL per animal (Prograf: 5 mg/mL). Animals in Group 3 received intra-cecally an ingestible device containing tacrolimus at 1 mg in 0.8 mL per ingestible device. Animals in Group 4 received intra-cecally an ingestible device containing tacrolimus at 2 mg in 0.8 mL per ingestible device. Animals in Group 5 received intra-cecally an ingestible device containing tacrolimus at 4 mg in 0.8 mL per ingestible device. To control for potential confounding effects of the surgery, all groups fast on Day −11 at least 24 hr before being subjected to anesthesia followed by surgical placements of a cecal port by a veterinary surgeon at Day −10. […]
For tissue necropsy, small intestine fluid and cecal fluid were collected separately from all the animals into two separate square plastic bottles, and stored at −20° C. The length and diameter of the cecum and the colon was measured from one animal in each group and recorded for reference. […] All samples were weighed, and the tissue sample weights were recorded. […] Around 3 grams of the total punched sample were collected into a pre-weighed 15-mL conical tube, and the tissue weight was recorded. […]

- mean concentration of tacrolimus in the cecum tissue and the proximate colon tissue: higher
Compound: C=CC[C@@H]1/C=C(\C)C[C@H](C)C[C@H](OC)[C@H]2O[C@@](O)(C(=O)C(=O)N3CCCC[C@H]3C(=O)O[C@H](/C(C)=C/[C@@H]3CC[C@@H](O)[C@H](OC)C3)[C@H](C)[C@@H](O)CC1=O)[C@H](C)C[C@@H]2OC [tacrolimus]
